Results reported in US7176293B1, “Compositions and methods to enhance sensitivity of cancer cells to mitotic stress” (The Wistar Institute of Anatomy and Biology, priority 1999, dated 2007).

Legend:
cyclin B/cdc2 = experiment: Cdc2 kinase activity in synchronized DLD1 cells; assay type: cell-based, human; details: synchronized DLD1-neo and DLD1-chfr cells treated 12 hours after release from the G1-S block
Procedure: Whole cell extracts, prepared as described above, were incubated with anti-cyclin B antibody (Santa Cruz) coupled to protein G beads (Pharmacia) in CL buffer for 1 hour. The beads were washed three times with CL buffer and then twice with cdc2 kinase (CK) buffer (50 mM HEPES, pH 7.0, 10 mM MgCl2, 10 mM MnCl2, 200 mM NaCl). The beads were then incubated with 1 μg histone H1 (Upstate Biotechnology) in CK buffer supplemented with 30 mM DTT, 0.06 μM ATP and 1 μCi ^32P-γ-ATP for 20 minutes at 30° C., at which time the reactions were subjected to denaturing gel electrophoresis. Phosphorylation of histone H1 was detected by autoradiography.

DLD1 cells [1] = experiment: Long term response to mitotic stress (colony formation); assay type: cell-based, human; details: 4 hour exposure 12 hours after release, colonies over three weeks
Procedure: Cells synchronized by a sequential thymidine-aphidicolin block were either not exposed to mitotic stress or exposed to 0.5 μg/ml nocodazole or the TAXOL™ drug for a 4 hour period starting 12 hours after aphidicolin release or release from the G1-S block. The short term response to mitotic stress was evaluated by examining the cell cycle profile at the time of nocodazole removal, 24 or 48 hours later. At the indicated time points, the cells were recovered from the tissue culture plates with trypsin, fixed in 70% ethanol for 10 minutes and incubated with propidium iodide and DNase-free RNase (Roche) in PBS containing 1% fetal bovine serum and 2% Tween-20. The nuclear morphology of the cells was visualized by fluorescence microscopy. The DNA content of the cell population was determined by flow cytometry.
To evaluate the long term response of the cells to survive exposure to mitotic stress, at the time of nocodazole removal, the cells were replated at a density of 200 cells per 100 mm diameter tissue culture dish. The cells were allowed to replicate and colonies were counted 3 weeks later.
To the long term response of the cells to survive exposure to mitotic stress, synchronized DLD1-neo and DLD1-chfr cells were transiently exposed to nocodazole or the TAXOL™ drug, as described above (e.g., exposed to nocodazole or the TAXOL™ drug 12 hours after release from the G1-S block for a 4 hour period). At the time of nocodazole removal, the cells were replated at a density of 200 cells per 100 mm diameter tissue culture dish and then allowed to form colonies over a three-week period.

DLD1 cells [2] = experiment: Centrosome staining of synchronized DLD1-neo and DLD1-chfr cells; assay type: cell-based, human; details: nocodazole added 12 hours after aphidicolin release, 14 hour time point
Procedure: Cells were grown on 8-well culture slides coated with human fibronectin (Becton Dickinson) and were examined as either non-synchronized or synchronized cells. The cells were prepared for microscopy by washing them three times with KM buffer (10 mM MES, pH 6.2, 10 mM NaCl, 1.5 mM MgCl2, 2.5% glycerol), fixing with 1% paraformaldehyde in 0.5×KM buffer for 15 minutes, washing once with 0.2% Triton X-100 in phosphate buffer saline (PBS) for 20 minutes and three times with PBS. For centrosome staining, the cells were incubated for 1 hour with a 1:500 dilution of autoimmune serum Ab598 in PBS, washed three times with PBS, incubated with a Texas Red-conjugated anti-human secondary antibody (Vector Labs) diluted 1:200 in PBS and washed again three times with PBS. For DNA staining, the cells were incubated with DAP1 ([…] in PBS). The slides were sealed with coverslips using Fluoromount-G (Upstate Biotechnology) and visualized with a fluorescence microscope (Leica). Separate images, acquired using filters corresponding to the excitation maxima of DAP1 and Texas Red, were merged with IRIX image tools (Silicon Graphics).
To correlate the timing of the Chfr effect with progress through the cell cycle, synchronized cells were stained with DAP1 to monitor chromosome condensation and with an antibody that recognizes the centrosomes. […]

[3] = system: eight human cancer cell lines (SW480, DLD1, HT29, HCT116, SAOS2, U20S, IMR5 and NGP); experiment: Mitotic index of unsynchronized human cancer cell lines treated with nocodazole; assay type: cell-based; details: 16 hours after nocodazole
Procedure: All cancer cells were grown in DMEM supplemented with glutamine, penicillin, streptomycin and 10% fetal bovine serum (Life Sciences). Normal human epidermal keratinocytes and osteoblasts were grown in KGM2 and OGM media, respectively (Clonetics). The cells were examined either non-synchronized or synchronized. For synchronization, the cells were treated with 2 mM thymidine for 16 hours, then with 0.25 mM thymidine/deoxycytidine for 9 hours, and then with 0.5 μg/ml aphidicolin for 20–24 hours. The cells were washed three times with PBS between each step [Janss et al., 1998, Exp. Cell Res., 243:29–38]. To induce mitotic stress, synchronized or non-synchronized cells were exposed to 0.5 μg/ml nocodazole, 5 μM of the TAXOL™ drug or 0.5 μg/ml colcemid. Cells were grown on 8-well culture slides coated with human fibronectin (Becton Dickinson) and were examined as either non-synchronized or synchronized cells. […] The slides were sealed with coverslips using Fluoromount-G (Upstate Biotechnology) and visualized with a fluorescence microscope (Leica). […] The cells were scored for Mitotic Index. […]

Chfr = biological target: T1, Chfr (Homo sapiens, UniProt Q96EP1); experiment: Ubiquitin-protein ligase assay in vitro; assay type: biochemical; details: crude bacterial lysates with E1, GST-Chfr, ubiquitin and ATP
T1 construct: Reactions were performed with full-length Chfr fused to GST; made in house; host or cells: E. coli (crude bacterial lysates)
T1 sequence (Q96EP1 1-664): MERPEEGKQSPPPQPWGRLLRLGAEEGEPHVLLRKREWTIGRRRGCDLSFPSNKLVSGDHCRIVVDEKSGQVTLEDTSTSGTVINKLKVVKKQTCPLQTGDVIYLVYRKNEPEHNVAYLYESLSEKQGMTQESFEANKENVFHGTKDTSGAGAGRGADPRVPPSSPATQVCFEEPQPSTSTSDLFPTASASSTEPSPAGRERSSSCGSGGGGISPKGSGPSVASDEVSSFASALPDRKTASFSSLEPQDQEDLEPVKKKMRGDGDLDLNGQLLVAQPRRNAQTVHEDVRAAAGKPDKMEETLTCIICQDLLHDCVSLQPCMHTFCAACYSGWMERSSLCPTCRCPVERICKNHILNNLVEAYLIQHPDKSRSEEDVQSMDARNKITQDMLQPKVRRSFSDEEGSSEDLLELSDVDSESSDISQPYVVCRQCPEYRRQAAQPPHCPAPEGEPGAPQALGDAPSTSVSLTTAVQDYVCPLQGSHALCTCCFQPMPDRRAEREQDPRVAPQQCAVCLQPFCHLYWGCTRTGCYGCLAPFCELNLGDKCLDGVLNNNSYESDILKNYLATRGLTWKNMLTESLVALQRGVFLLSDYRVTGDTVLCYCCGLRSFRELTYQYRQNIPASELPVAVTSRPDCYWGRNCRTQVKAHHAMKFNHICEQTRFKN
Procedure: Recombinant E. coli bacterial cells that have been genetically engineered to express the E1 ubiquitin-activating enzyme and the E2 ubiquitin-conjugating enzyme (either UbchD2 or Ubch8) and a […] comprised of glutathione S-transferase fused to the N-terminus of Chfr were lysed. The lysates were incubated in the presence of ubiquitin and ATP and the reaction allowed to proceed for 20 minutes at 30° C. GST-Chfr was captured on glutathione beads, eluted with SDS sample buffer, and resolved by SDS-PAGE. The SDS gel was immunoblotted with antibodies that recognize ubiquitin. Reactions were performed with full-length Chfr fused to GST and reactions were performed with Chfr lacking amino acid residues 1–280 of SEQ ID NO: 2, which contain the FHA domain.

Compound | Cyclin B/cdc2 activity (cyclin B/cdc2) | number of colony-forming units (CFUs) (DLD1 cells [1]; DLD1-chfr cells) | number of colony-forming units (CFUs) (DLD1 cells [1]; DLD1-neo cells) | centrosome separation (DLD1 cells [2]) | mitotic index (fraction of cells that had condensed chromosomes) ([3]; cell lines that expressed wild-type Chfr) | mitotic index (fraction of cells that had condensed chromosomes) ([3]; cell lines with no detectable Chfr expression and U20S cells (variant chfr)) | ability of the E2 ubiquitin-conjugating enzyme to support ligase activity of Chfr (Chfr)
COC(=O)Nc1nc2ccc(C(=O)c3cccs3)cc2[nH]1 [nocodazole] | high | unaffected | decrease | inhibited | low | high | –
Ubch8: E2 ubiquitin-conjugating enzyme | – | – | – | – | – | – | did not function in this assay
CC(=O)O[C@H]1C(=O)[C@@]2(C)[C@H]([C@H](OC(=O)c3ccccc3)[C@]3(O)C[C@H](OC(=O)[C@H](O)[C@@H](NC(=O)c4ccccc4)c4ccccc4)C(C)=C1C3(C)C)[C@]1(OC(C)=O)CO[C@@H]1C[C@@H]2O [TAXOL™ drug] | – | unaffected | decrease | – | – | – | –
